# Reference: US7576222B2, “Alkynyl-containing tryptophan derivative inhibitors of TACE/matrix metalloproteinase” (priority 2004, dated 2009)
# pIC50: −log10 of the molar value. Like-named read-outs stand apart in the source and are kept apart here.
# Key:
# [1] = biological target: T1, catalytic domain of the recombinant TACE protein (Homo sapiens, UniProt P78536); test: TACE FRET assay using TACE cat; format: biochemical; settings: for inhibition at 1 µM: read-out: TACE Inhibition (%)
# T1 construct: The catalytic domain of the recombinant TACE protein was expressed and purified; made in house
# T1 sequence (P78536 223-474 limits assumed): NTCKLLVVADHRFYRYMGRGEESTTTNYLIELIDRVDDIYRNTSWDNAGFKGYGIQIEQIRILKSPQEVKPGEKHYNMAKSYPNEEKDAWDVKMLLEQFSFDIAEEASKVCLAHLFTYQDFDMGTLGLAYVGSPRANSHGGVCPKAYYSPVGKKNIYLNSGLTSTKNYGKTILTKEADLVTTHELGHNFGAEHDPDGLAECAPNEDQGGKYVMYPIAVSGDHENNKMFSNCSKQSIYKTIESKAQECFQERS
# Outline: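 Initial fluorescence rate of Abz-[sequence]-Dpa pro-TNF-α peptide cleavage (substrate from 2 mM stock) read after adding substrate to enzyme (1 ug/ml) preincubated 10 min, room temperature, with inhibitor.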
# [2] = biological target: T2, recombinant human catalytic domain of MMP-13 (Homo sapiens, UniProt P45452); test: biochemical
# T2 construct: catalytic domain of MMP-13 (165 amino acids, residues 104-268, 19 kDa)
# Description: (§1) A continuous assay was used in which the substrate is a synthetic peptide containing a fluorescent group (7-methoxycoumarin; Mca) that is quenched by energy transfer to a 2,4-dinitrophenyl group. See Knight, C. G. et al., FEBS Lett. (1992) 296: 263-266, incorporated herein by reference in its entirety. […] See Zhang, Y et al., Journal of Pharmacology and Experimental Therapeutics (JPET) (2004) 309:348-355, incorporated by reference in its entirety. The substrate used was Mca-PQGL-(3-[2,4-dinitrophenyl]-L-2,3-diaminopropionyl)-AR-OH (denoted as Wammp-5, custom synthesized by AnaSpec, Inc., San Jose, Calif.). The assay buffer consisted of 50 mM Hepes (pH 7.4), 100 mM NaCl, 5 mM CaCl2, and 0.005% Brij-35. Each well of black polystyrene 96-well plates contained a 200 μl reaction mixture consisting of assay buffer, purified MMP (final concentration of 25 ng/ml, prepared by diluting with the assay buffer), and varied concentrations of inhibitor (prepared by serially diluting a given inhibitor in DMSO in 96-well polypropylene plate). The plates were then incubated at 30° C. for 15 minutes. The enzymatic reactions were initiated by adding the substrate to a final concentration of 20 μM, and mixing 10 times with a pipette. The final DMSO concentration in the assay was 6.0%. The initial rate of the cleavage reaction was determined at 30° C. with a fluorescence plate reader (excitation filter of 330 nm and emission filter of 395 nm) immediately after substrate addition.
# (§2) Plots of the inhibitor concentration versus the percent inhibition were fit to the following equation: y=(a−d)/[1+(x/c)^b]+d, a general sigmoidal curve with Hill slope, a to d. x is the inhibitor concentration under test. “y” is the percent inhibition. “a” is the limiting response as x approaches zero. As x increases without bound, y tends toward its limit d. “c” is the inflection point (IC50) for the curve. That is, y is halfway between the lower and upper asymptotes when x=c. “b” is the slope factor or Hill coefficient.
# In-Vitro Fluorescence Assay of MMP-13 Activity
# See Zhang, Y et al., Journal of Pharmacology and Experimental Therapeutics (JPET) (2004) 309:348-355, incorporated by reference in its entirety.
# recombinant human MMP-2 = biological target: T3, recombinant human MMP-2 (Homo sapiens, UniProt P08253); test: In-vitro fluorescence (FRET) assay of MMP-2 activity; format: biochemical
# T3 construct: purchased Oncogene Research Products (Calbiochem) PF023
# T3 sequence (P08253 110-660): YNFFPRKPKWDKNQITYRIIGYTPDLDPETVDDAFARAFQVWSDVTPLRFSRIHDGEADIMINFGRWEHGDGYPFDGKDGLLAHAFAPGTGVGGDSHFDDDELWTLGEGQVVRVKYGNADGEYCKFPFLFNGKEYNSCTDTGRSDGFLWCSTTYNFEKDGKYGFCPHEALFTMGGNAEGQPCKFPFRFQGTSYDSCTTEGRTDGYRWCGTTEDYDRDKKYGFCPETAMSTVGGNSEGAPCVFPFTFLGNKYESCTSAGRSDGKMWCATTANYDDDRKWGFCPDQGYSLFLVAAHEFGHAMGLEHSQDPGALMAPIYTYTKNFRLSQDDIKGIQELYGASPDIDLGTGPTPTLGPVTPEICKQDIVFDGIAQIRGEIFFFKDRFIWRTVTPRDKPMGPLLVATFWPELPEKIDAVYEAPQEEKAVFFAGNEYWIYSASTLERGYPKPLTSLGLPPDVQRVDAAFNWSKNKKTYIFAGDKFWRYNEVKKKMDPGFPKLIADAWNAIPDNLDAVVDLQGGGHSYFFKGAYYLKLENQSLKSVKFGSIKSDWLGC
# Description: as §1, §2
# In-Vitro Fluorescence Assay of MMP-2 Activity
# [3] = tested on: TNF-α Secretion in Raw Cells (Raw 264.7 cells); test: Cell-based assay for inhibition of TNF-α secretion in Raw cells; settings: Mus musculus, RAW264.7, 4 h, read-out: TNF-α Secretion in Raw Cells IC50
# Protocol: Cell-Based Assay for Inhibition of TNF-A Secretion in Raw Cells
# The basic measurement of the assay is the percentage of inhibition of TNF-α secretion and the IC50 determination by a fitting with the model-39 of LSW data analysis tool.
# Raw 264.7 cells (ATCC Cat No. TIB-71) are maintained in DMEM medium containing 10% of serum, P/S, and Glutamine. […] For testing compounds, cells are cultured to confluence and are seeded the day before the experiment in 24 well culture dishes at 0.5 to 1 million/ml/well. On the next morning, the medium from the overnight culture is replaced with the fresh growth medium. The compounds are added at various concentrations at the 0.2% of final DMSO concentrations (10 μl of a 20% DMSO solution containing testing compounds is added to each well). The cells are pre-incubated with compounds for 1 hour. LPS (Sigma, L2262) is added to cells at a final concentration of 100 ng/ml (10 μl of a […] LPS solution freshly diluted from a 1 mg/ml LPS stock solution in PBS is added to each well) and cells are further incubated for 4 hours at 37° C. One milliliter (1 ml) of the supernatant was collected, cells are spun down and the supernatants are frozen at −80° C. until use.
# The TNF-α and other proinflammatory cytokines were detected by ELISA assay according to the manufacturer's instruction (Biosource International, Inc., Camarillo, Calif.) (For IL-1b measurement in Raw cells, one round of freeze and thaw of the cells was required.)
# [4] = TACE FRET assay, catalytic domain of recombinant TACE, read-out: TACE IC50
SMILES,inhibition at 1 µM [1] [%],other results
"CC#CCOc1ccc(S(=O)(=O)NC(Cc2c[nH]c3ccc(C)cc23)C(=O)O)cc1 (racemic) [Example 6, N-{[4-(but-2-ynyloxy)phenyl]sulfonyl}-5-methyltryptophan]",–,pIC50 [1]: 6.55; pIC50 [2]: 5.16; pIC50 (recombinant human MMP-2): 5.94
"CC#CCOc1ccc(S(=O)(=O)N[C@H](Cc2cn(Cc3ccc(F)cc3)c3ccccc23)C(=O)O)cc1 [Example 28, N-{[4-(but-2-ynyloxy)phenyl]sulfonyl}-1-(4-fluorobenzyl)-D-tryptophan]",–,"pIC50 [1, 4]: 5.72; pIC50 [2]: 4.77; pIC50 (recombinant human MMP-2): 5.40"
"CC#CCOc1ccc(S(=O)(=O)NC(Cc2c[nH]c3ccc(OCc4ccccc4)cc23)C(=O)O)cc1 (racemic) [Example 20, 5-(benzyloxy)-N-{[4-(but-2-ynyloxy)phenyl]sulfonyl}tryptophan]",–,pIC50 [1]: 6.12; pIC50 [2]: 4.82; pIC50 (recombinant human MMP-2): 5.11
"CC#CCOc1ccc(S(=O)(=O)N[C@H](Cc2cn(Cc3ccc(OCC)cc3)c3ccccc23)C(=O)O)cc1 [Example 215, N-{[4-(but-2-ynyloxy)phenyl]sulfonyl}-1-(4-ethoxybenzyl)-D-tryptophan]",69.5,–
"CC#CCOc1ccc(S(=O)(=O)N[C@@H](Cc2cn(Cc3ccccc3C)c3ccc(OC)cc23)C(=O)O)cc1 [Example 49, N-{[4-(but-2-ynyloxy)phenyl]sulfonyl}-5-methoxy-1-(2-methylbenzyl)tryptophan]",38.9,–
"CC#CCOc1ccc(S(=O)(=O)N[C@@H](Cc2c(C)n(Cc3ccc(C#N)cc3)c3ccc(Cl)cc23)C(=O)O)cc1 [Example 98, N-{[4-(but-2-ynyloxy)phenyl]sulfonyl}-5-chloro-1-(4-cyanobenzyl)-2-methyltryptophan]",61,–
"CC#CCOc1ccc(S(=O)(=O)N[C@@H](Cc2cn(Cc3ccc(C#N)cc3)c3ccc(C(=O)O)cc23)C(=O)O)cc1 [Example 123, N-{[4-(but-2-ynyloxy)phenyl]sulfonyl}-5-carboxy-1-(4-cyanobenzyl)tryptophan]",-2.56,–
"CC#CCOc1ccc(S(=O)(=O)N[C@@H](Cc2c(C)n(Cc3ccccc3OC)c3ccccc23)C(=O)O)cc1 [Example 146, N-{[4-(but-2-ynyloxy)phenyl]sulfonyl}-1-(2-methoxybenzyl)-2-methyltryptophan]",35.9,–
"CC#CCOc1ccc(S(=O)(=O)N[C@@H](Cc2c(C)n(CCCCC)c3ccc(OC)cc23)C(=O)O)cc1 [Example 211, N-{[4-(but-2-ynyloxy)phenyl]sulfonyl}-5-methoxy-2-methyl-1-pentyltryptophan]",72.2,–
"CC#CCOc1ccc(S(=O)(=O)N[C@@H](Cc2c(C)n(Cc3ccccc3OC)c3ccc(Cl)cc23)C(=O)O)cc1 [Example 89, N-{[4-(but-2-ynyloxy)phenyl]sulfonyl}-5-chloro-1-(2-methoxybenzyl)-2-methyltryptophan]",53.6,–
"CC#CCOc1ccc(S(=O)(=O)N[C@@H](Cc2cn(Cc3ccccc3C#N)c3ccc(C(=O)O)cc23)C(=O)O)cc1 [Example 121, N-{[4-(but-2-ynyloxy)phenyl]sulfonyl}-5-carboxy-1-(2-cyanobenzyl)tryptophan]",14.8,–
"CC#CCOc1ccc(S(=O)(=O)N[C@@H](Cc2c(C)n(Cc3ccc(F)cc3)c3ccc(OC)cc23)C(=O)O)cc1 [Example 199, N-{[4-(but-2-ynyloxy)phenyl]sulfonyl}-1-(4-fluorobenzyl)-5-methoxy-2-methyltryptophan]",–,pIC50 [1]: 6.49; pIC50 [3]: < 4.22
"CC#CCOc1ccc(S(=O)(=O)N[C@@H](Cc2c(C)n(Cc3ccc(C(F)(F)F)cc3)c3ccc(Cl)cc23)C(=O)O)cc1 [Example 93, N-{[4-(but-2-ynyloxy)phenyl]sulfonyl}-5-chloro-2-methyl-1-[4-(trifluoromethyl)benzyl]tryptophan]",53.8,–
"CC#CCOc1ccc(S(=O)(=O)N[C@@H](Cc2cn(CC(C)C)c3ccc(C#N)cc23)C(=O)O)cc1 [Example 143, N-{[4-(but-2-ynyloxy)phenyl]sulfonyl}-5-cyano-1-isobutyltryptophan]",32.4,–
"CC#CCOc1ccc(S(=O)(=O)N[C@@H](Cc2cn(Cc3cc(OC)cc(OC)c3)c3ccc(C(=O)O)cc23)C(=O)O)cc1 [Example 110, N-{[4-(but-2-ynyloxy)phenyl]sulfonyl}-5-carboxy-1-(3,5-dimethoxybenzyl)tryptophan]",8.02,–
"CC#CCOc1ccc(S(=O)(=O)N[C@@H](Cc2c(C)n(Cc3ccc(Cl)cc3)c3ccccc23)C(=O)O)cc1 [Example 156, N-{[4-(but-2-ynyloxy)phenyl]sulfonyl}-1-(4-chlorobenzyl)-2-methyltryptophan]",43.3,–
"CC#CCOc1ccc(S(=O)(=O)N[C@@H](Cc2c(C)n(Cc3ccc(OC)cc3)c3ccccc23)C(=O)O)cc1 [Example 148, N-{[4-(but-2-ynyloxy)phenyl]sulfonyl}-1-(4-methoxybenzyl)-2-methyltryptophan]",44.1,–
"CC#CCOc1ccc(S(=O)(=O)N[C@H](Cc2cn(CCCCC)c3ccccc23)C(=O)O)cc1 [Example 22, N-{[4-(but-2-ynyloxy)phenyl]sulfonyl}-1-pentyl-D-tryptophan]",–,"pIC50 [1, 4]: 5.64"
"CC#CCOc1ccc(S(=O)(=O)N[C@@H](Cc2cn(Cc3ccccc3F)c3ccc(Cl)cc23)C(=O)O)cc1 [Example 79, N-{[4-(but-2-ynyloxy)phenyl]sulfonyl}-5-chloro-1-(2-fluorobenzyl)tryptophan]",8.27,–
"CC#CCOc1ccc(S(=O)(=O)N[C@@H](Cc2cn(Cc3ccc(F)cc3)c3ccc(C(=O)O)cc23)C(=O)O)cc1 [Example 117, N-{[4-(but-2-ynyloxy)phenyl]sulfonyl}-5-carboxy-1-(4-fluorobenzyl)tryptophan]",10.9,–
"CC#CCOc1ccc(S(=O)(=O)N[C@@H](Cc2c(C)n(Cc3ccc(C#N)cc3)c3ccc(OC)cc23)C(=O)O)cc1 [Example 205, N-{[4-(but-2-ynyloxy)phenyl]sulfonyl}-1-(4-cyanobenzyl)-5-methoxy-2-methyltryptophan]",–,pIC50 [1]: 6.33
"CC#CCOc1ccc(S(=O)(=O)N[C@@H](Cc2c(C)n(Cc3ccccc3C)c3ccccc23)C(=O)O)cc1 [Example 145, N-{[4-(but-2-ynyloxy)phenyl]sulfonyl}-2-methyl-1-(2-methylbenzyl)tryptophan]",49.5,–
"CC#CCOc1ccc(S(=O)(=O)N[C@@H](Cc2c(C)n(CC3CCCCC3)c3ccc(OC)cc23)C(=O)O)cc1 [Example 213, N-{[4-(but-2-ynyloxy)phenyl]sulfonyl}-1-(cyclohexylmethyl)-5-methoxy-2-methyltryptophan]",60.5,–
"CC#CCOc1ccc(S(=O)(=O)N[C@@H](Cc2cn(Cc3ccc(C(=O)O)cc3)c3ccc(C(=O)O)cc23)C(=O)O)cc1 [Example 126, N-{[4-(but-2-ynyloxy)phenyl]sulfonyl}-5-carboxy-1-(4-carboxybenzyl)tryptophan]",8.36,–
